Laboratory results reported in US6911432B2, “Drugs, foods or drinks with the use of algae-derived physiologically active substances” (priority 1997, dated 2005).

Legend:
iNOS = iNOS expression by western blotting and RT-PCR; format: cell-based; settings: protein level by western blotting, messenger RNA level by RT-PCR
Protocol: The confirmation was carried out at protein level by western blotting and at messenger RNA level by RT-PCR. That is, the compounds used in the present invention are useful for treating and preventing diseases that require inhibition of NO production by inhibiting expression of iNOS which is overexpressed by various factors to produce excess NO.

A-172 = test: antiproliferation assay, MTT method; format: cell-based; settings: for dilution rate of the dilution added to the group whose absorbance at 590 nm was less than one-half of that of the control group: dilution rate 1 corresponds to 5 mM in medium; for IC50: read-out: IC50 (concentration required for 50% proliferation inhibitory rate)
Protocol: (§1) Each fraction was sterilized by filtration and its 10 μl portion was placed in a well of a 96 well microtiter plate. […] The cell morphology was observed under an optical microscope. […] The absorbance at 590 nm was measured to determine a cell proliferation rate. (2) A 50 mM solution of agarobiose, agarotetraose or agarohexaose obtained in Example 3-(1) was sterilized by filtration and diluted 2-, 4-, 8-, 16-, 32-, 64- and 128-folds with sterilized water. […] [table] The number in Table 3 represents the dilution rate of the dilution added to the group whose absorbance at 590 nm was less than one-half of that of the control group to which water was added. […] Then, for agarobiose, agarotetraose and agarohexaose, the concentrations required for 50% proliferation inhibitory rate (IC50) are calculated based on the change in the absorbance at 590 nm, and are shown in Table 4.

HT-1080 = test: antiproliferation assay, MTT method; format: cell-based; settings: for dilution rate of the dilution added to the group whose absorbance at 590 nm was less than one-half of that of the control group: dilution rate 1 corresponds to 5 mM in medium; for IC50: read-out: IC50 (concentration required for 50% proliferation inhibitory rate)
Protocol: as §1

T24 = test: antiproliferation assay, MTT method; format: cell-based, human; settings: for dilution rate of the dilution added to the group whose absorbance at 590 nm was less than one-half of that of the control group: dilution rate 1 corresponds to 5 mM in medium; for IC50: read-out: IC50 (concentration required for 50% proliferation inhibitory rate)
Protocol: as §1

HL-60 cells [1] = test: antiproliferation assay, MTT method, absorbance at 590 nm; format: cell-based, human; settings: for dilution rate of the dilution added to the group whose absorbance at 590 nm was less than one-half of that of the control group: 50 mM solution diluted 2- to 128-fold, dilution rate 1 corresponds to 5 mM in the cell culture medium; for IC50: read-out: IC50 (concentration required for 50% proliferation inhibitory rate); for antiproliferation activity against HL-60 cells (in words): preparations and fractions, compared with control to which water was added
[2] = tested on: lipid peroxide radical production; test: inhibition of lipid peroxide radical production (tert-butyl hydroperoxide, bacterial growth readout); format: cell-based, Staphylococcus aureus 3A; set-up: key to growth of the bacterium (activity of inhibiting lipid peroxide radical production): + represents the sample in which the growth of the bacterium was observed; −represents the sample in which the growth of the bacterium was not observed
Protocol: Staphylococcus aureus 3A (National Collection Of Type Culture, NCTC 8319) was inoculated into 5 ml of brain heart infusion medium (manufactured by Difco, 0037-17-8) and cultured at 37° C. overnight. The bacterial cells were collected by centrifugation, washed with phosphate buffered saline 3 times and then suspended in phosphate buffered saline at a concentration of 1×10^7 colony forming units/ml. A mixture of 100 μl of the cell suspension, 100 μl of an aqueous sample solution, 100 μl of aqueous 1 mg/ml methemoglobin (manufactured by Sigma M9250) solution, 600 μl of phosphated buffered saline and 100 μl of aqueous 50 mM tert-butyl hydroperoxide (manufactured by Katayama Kagaku, 03-4990) solution were reacted at 37° C. for 30 minutes. To the reaction mixture was added 1 ml of 2×NMP medium [prepared by dissolving 8 g of nutrient broth (manufactured by Difco, 0003-01-6), 5 g of trypton (manufactured by Difco, 0123-17-3), 5 g of NaCl, 10 g of mannitol (manufactured by Nacalai Tesque, 213-03) and 0.035 g of phenol red (manufactured by Nacalai Tesque, 268-07) in distilled water to make the volume up to 500 ml. The pH was adjusted to 7.5 with NaOH and then the mixture was sterilized by filtration] to stop the reaction. The resultant mixture was diluted every 3-folds with NMP medium (prepared by diluting 2×NMP medium 2-folds with sterilized water) to prepare 12 serial dilutions and 160 μl of each dilution was placed in each well of a 96-well microtiter plate. The plate was incubated at 37° C. overnight.
In Table 14, + represents the sample in which the growth of the bacterium was observed, and −represents the sample in which the growth of the bacterium was not observed. The concentration shown in the uppermost line of the table is that of the sample in the reaction mixture in which the sample was reacted with tert-butyl hydroperoxide and the bacterial cells at 37° C. for 30 minutes.

HL-60 cells [3] = test: viable cell count with Trypan Blue under a microscope; format: cell-based, human; settings: final concentration 250 μM or 125 μM; for number of viable cells as compared with the group to which water was added: 24 hours or 48 hours
Protocol: Agarobiose, agarotetraose, agarohexaose and agarooctaose (hereinafter, sometimes, these oligosuccharaides are referred to as agarooligosaccharides) obtained in Example 5 were dissolved in water at a concentration of 2.5 mM or 1.25 mM separately, and were sterilized by filtration. HL-60 cells were suspended in RPMI 1640 medium containing 10% fetal bovine serum at a concentration of 2.5×10^5 cells/4.5 ml and to this suspension was added 0.5 ml of each of the oligosaccharide solutions. The resultant mixture were incubated with 5% CO2 at 37° C. for 24 hours or 48 hours. A part of the cell culture was taken up, followed by addition of Trypan Blue thereto and observing under a microscope to count the number of viable cells.
That is, FIG. 14 illustrates the relation between the incubation time and the number of viable cells when HL-60 cells were cultured with addition of one of the oligosaccharides at the final concentration of 250 μM. FIG. 15 illustrates the relation between the incubation time and the number of viable cells when HL-60 cells were cultured with addition of one of the oligosaccharides at the final concentration of 125 μM. In FIGS. 14 and 15, the horizontal axes represent the incubation time (hrs.) and the vertical axes represent the number of viable cells (× 10^5/5 ml). The closed circle (●) represents the addition of water (control), the open diamond (⋄) represents the addition of agarobiose, the open circle (◯) represents the addition of agarotetraose, the open triangle (Δ) represents the addition of agarohexaose and the open square (□) represents the addition of agarooctaose.

[4] = reaction with L-cysteine or L-lysine in phosphate buffered saline at 37° C., thin layer chromatography; format: physicochemical
Protocol: (2) Agarobiose and agarohexaose obtained in Example 14-(1) were dissolved in water to prepare 100 mM aqueous solutions thereof. To each 25 μl of these solutions was added 50 μl of 100 mM aqueous L-cysteine solution, followed by addition of 925 μl of phosphate buffered saline. Then, the mixture was treated at 37° C. for 1 hour or 16 hours. The same reaction was repeated except that an aqueous solution containing the same concentration of L-lysine was used instead of the aqueous L-cysteine solution.
1 μl of a sample from each reaction was spotted on a silica gel sheet 60 F254, developed with 1-butanol:ethanol:water=5:5:1 and detected by orcinol-sulfate method.

RAW264.7 = test: antiproliferation assay, MTT method; format: cell-based, mouse; settings: for dilution rate of the dilution added to the group whose absorbance at 590 nm was less than one-half of that of the control group: dilution rate 1 corresponds to 5 mM in medium; for IC50: read-out: IC50 (concentration required for 50% proliferation inhibitory rate)
Protocol: as §1

[5] = HL-60, after reaction with L-cysteine at 37° C. for 1 hour
[6] = HL-60, after reaction with L-cysteine at 37° C. for 16 hours
[7] = HL-60, after reaction with L-lysine at 37° C. for 16 hours
[8] = 0.1 mM sample in the reaction mixture
[9] = 1 mM sample in the reaction mixture

| IC50 (HT-1080) | IC50 (T24) | IC50 (HL-60 cells [1]; HL-60) | spot of the saccharide on thin layer chromatography after reaction ([4]; L-cysteine, 1 hour) | spot of the saccharide on thin layer chromatography after reaction ([4]; L-cysteine, 16 hours) | spot of the saccharide on thin layer chromatography after reaction ([4]; L-lysine, 16 hours) | Compound | inhibition of iNOS expression (iNOS) | dilution rate of the dilution added to the group whose absorbance at 590 nm was less than one-half of that of the control group (A-172) | IC50 (A-172) | dilution rate of the dilution added to the group whose absorbance at 590 nm was less than one-half of that of the control group (HT-1080) | dilution rate of the dilution added to the group whose absorbance at 590 nm was less than one-half of that of the control group (T24) | dilution rate of the dilution added to the group whose absorbance at 590 nm was less than one-half of that of the control group (HL-60 cells [1]; HL-60) | antiproliferation activity relative to the same concentration of the unreacted saccharide (HL-60 cells [1]; [5]) | antiproliferation activity relative to the same concentration of the unreacted saccharide (HL-60 cells [1]; [6]) | antiproliferation activity relative to the same concentration of the unreacted saccharide (HL-60 cells [1]; [7]) | activity of inhibiting lipid peroxide radical production (in words) [2] | growth of the bacterium (activity of inhibiting lipid peroxide radical production) [2, 8] | growth of the bacterium (activity of inhibiting lipid peroxide radical production) [2, 9] | apoptosis corpuscles (HL-60 cells [3]) | number of viable cells as compared with the group to which water was added (HL-60 cells [3]) | other results |
| --- | --- | --- | --- | --- | --- | --- | --- | --- | --- | --- | --- | --- | --- | --- | --- | --- | --- | --- | --- | --- | --- |
| 317 µM | 352 µM | 170 µM | disappeared | disappeared | disappeared | OC[C@H]1O[C@@H](O[C@H]2[C@H]3OC[C@@H]2OC(O)[C@H]3O)[C@H](O)[C@@H](O)[C@H]1O (mixture of isomers) [Agarobiose, agarobiose] | inhibit this iNOS expression | 16 | 289 µM | 8 | 8 | 32 | 1/10 | 1/10 | 1/10 | strong activity | + | + | apoptosis corpuscles were observed | decreased | cell proliferation suppressed as compared with the control group (HL-60 cells [1]; HL-60, agarobiose at 78 μg/ml, 48 hours): about 86%; antiproliferation activity against HL-60 cells (in words) (HL-60 cells [1]; listed as group 4): an antiproliferation activity was observed; antiproliferation activity against HL-60 cells (in words) (HL-60 cells [1]; listed as group 5): an antiproliferation activity was observed; antiproliferation activity against HL-60 cells (in words) (HL-60 cells [1]; listed as peak at the elution time 8.87 min.): had both activities; antiproliferation activity against HL-60 cells (in words) (HL-60 cells [1]; listed as peak at the elution time 9.40 min.): had both activities; dilution rate of the dilution added to the group whose absorbance at 590 nm was less than one-half of that of the control group (RAW264.7): 16; IC50 (RAW264.7): 179 µM |
| 216 µM | 399 µM | 97 µM | disappeared | disappeared | disappeared | OC[C@H]1O[C@@H](O[C@H]2[C@H]3OC[C@@H]2O[C@@H](O[C@H]2[C@@H](O)[C@@H](CO)O[C@@H](O[C@H]4[C@H]5OC[C@@H]4OC(O)[C@H]5O)[C@@H]2O)[C@H]3O)[C@H](O)[C@@H](O)[C@H]1O (stereo partly shown) [Agarotetraose, agarotetraose] | inhibit this iNOS expression | 16 | 185 µM | 16 | 8 | 64 | 1/10 | 1/10 | 1/10 | strong activity | − | + | apoptosis corpuscles were observed | decreased | dilution rate of the dilution added to the group whose absorbance at 590 nm was less than one-half of that of the control group (RAW264.7): 32; IC50 (RAW264.7): 133 µM |
